The target in series [1] is cyclic nucleotide phosphodiesterase 4 from guinea-pig hearts. As to the kind of experiment: Inhibition of cyclic nucleotide phosphodiesterase 4 (96-well microtiter plates, Verghese et al.). Format: biochemical. The conditions noted are these: PDE 4 from guinea-pig hearts; read-out: PDE4 IC50. On the procedure: The inhibition of cyclic nucleotide phosphodiesterase 4 from guinea-pig hearts was performed using 96-well microtiter plates as described by Verghese et al., (Molecular Pharmacology, 47, 1164-1171 (1995)).

As usually defined, the IC50 is the concentration that gives 50% inhibition. As usually defined, the melting point is the temperature of the solid-liquid transition. In turn, `CCCCc1nnc2c3cccnc3c(-c3ccccc3)nn12` [Compound 6] showed a melting point of 162.9 °C. The IC50 in series [1] amounted to 2000 nM. In the same order, the values of `CC(C)Cc1nnc2c3cccnc3c(-c3ccccc3)nn12` [Compound 7] are 179.7 °C and 300 nM. The molecule `CC(C)(C)c1nnc2c3cccnc3c(-c3ccccc3)nn12` [Compound 8, 3-t-butyl-6-phenyl-1,2,4-triazolo[4,3-b]pyrido[3,2-d]pyridazine] registered a melting point of 188.1 °C. For the molecule `c1ccc(-c2nn3c(C4CC4)nnc3c3cccnc23)cc1` [Compound 12, 3-cyclopropyl-6-phenyl-1,2,4-triazolo[4,3-b]pyrido[3,2-d]pyridazine], the melting point was 244.3 °C. In addition, the IC50 in series [1] worked out at 3000 nM.

`CC(C)Cc1nnc2c3cccnc3c(-c3ccc(F)cc3)nn12` [Compound 31, 6-(4-fluorophenyl)-3-isobutyl-1,2,4-triazolo[4,3-b]pyrido[3,2-d]pyridazine] showed a melting point of 135 °C. Moreover, in series [1], the concentration for half-maximal inhibition (IC50) was 200 nM. Take `Fc1cccc(-c2nn3c(CC4CCCC4)nnc3c3cccnc23)c1` [Compound 47]: the melting point amounted to 145 °C. Moreover, in series [1], the IC50 was 700 nM. In the same order, the values of `CC(C)Cc1nnc2c3cccnc3c(-c3cccc(Cl)c3)nn12` [Compound 55] are 113 °C and 200 nM. In the same order, the values of `Clc1cccc(-c2nn3c(CC4CC4)nnc3c3cccnc23)c1` [Compound 60] are 136 °C and 100 nM. The like results for `Clc1cccc(-c2nn3c(CC4CCC4)nnc3c3cccnc23)c1` [Compound 61] were, in that order, 156 °C and 2000 nM. As to `CC(C)Cc1nnc2c3cccnc3c(-c3cccc([N+](=O)[O-])c3)nn12` [Compound 109], the melting point was determined as 178 °C. Also, in series [1], the IC50 was 40 nM. In the same order, the values of `O=[N+]([O-])c1cccc(-c2nn3c(CC4CC4)nnc3c3cccnc23)c1` [Compound 112, 3-cyclopropylmethyl-6-(3-nitrophenyl)-1,2,4-triazolo[4,3-b]pyrido[3,2-d]pyridazine] are 164 °C and 700 nM. In the same order, the values of `O=[N+]([O-])c1cccc(-c2nn3c(CC4CCC4)nnc3c3cccnc23)c1` [Compound 113, 3-cyclobutylmethyl-6-(3-nitrophenyl)-1,2,4-triazolo[4,3-b]pyrido[3,2-d]pyridazine] are 150 °C and 200 nM.

As for `CC(C)Cc1nnc2c3ccccc3c(-c3ccccc3)nn12` [Compound A, 3-isobutyl-6-phenyl-1,2,4-triazolo[3,4-a]phthalazine, reference compound], the IC50 in series [1] stood at 10000 nM.

Source of the values: patent US6407108B1, “1,2,4-triazolo(4,3-b)pyrido(3,2-d)pyridazine derivatives and pharmaceutical compositions containing them” (Almirall Prodesfarma, S.A., priority 1997, dated 2002).
